Common to all, as to assay type: cell-based
For one experiment, the target named is T1, human TLR9 (Homo sapiens, UniProt Q9NR96).
T1 construct: host or cells: HEK-Blue cells
T1 sequence (Q9NR96 26-1032): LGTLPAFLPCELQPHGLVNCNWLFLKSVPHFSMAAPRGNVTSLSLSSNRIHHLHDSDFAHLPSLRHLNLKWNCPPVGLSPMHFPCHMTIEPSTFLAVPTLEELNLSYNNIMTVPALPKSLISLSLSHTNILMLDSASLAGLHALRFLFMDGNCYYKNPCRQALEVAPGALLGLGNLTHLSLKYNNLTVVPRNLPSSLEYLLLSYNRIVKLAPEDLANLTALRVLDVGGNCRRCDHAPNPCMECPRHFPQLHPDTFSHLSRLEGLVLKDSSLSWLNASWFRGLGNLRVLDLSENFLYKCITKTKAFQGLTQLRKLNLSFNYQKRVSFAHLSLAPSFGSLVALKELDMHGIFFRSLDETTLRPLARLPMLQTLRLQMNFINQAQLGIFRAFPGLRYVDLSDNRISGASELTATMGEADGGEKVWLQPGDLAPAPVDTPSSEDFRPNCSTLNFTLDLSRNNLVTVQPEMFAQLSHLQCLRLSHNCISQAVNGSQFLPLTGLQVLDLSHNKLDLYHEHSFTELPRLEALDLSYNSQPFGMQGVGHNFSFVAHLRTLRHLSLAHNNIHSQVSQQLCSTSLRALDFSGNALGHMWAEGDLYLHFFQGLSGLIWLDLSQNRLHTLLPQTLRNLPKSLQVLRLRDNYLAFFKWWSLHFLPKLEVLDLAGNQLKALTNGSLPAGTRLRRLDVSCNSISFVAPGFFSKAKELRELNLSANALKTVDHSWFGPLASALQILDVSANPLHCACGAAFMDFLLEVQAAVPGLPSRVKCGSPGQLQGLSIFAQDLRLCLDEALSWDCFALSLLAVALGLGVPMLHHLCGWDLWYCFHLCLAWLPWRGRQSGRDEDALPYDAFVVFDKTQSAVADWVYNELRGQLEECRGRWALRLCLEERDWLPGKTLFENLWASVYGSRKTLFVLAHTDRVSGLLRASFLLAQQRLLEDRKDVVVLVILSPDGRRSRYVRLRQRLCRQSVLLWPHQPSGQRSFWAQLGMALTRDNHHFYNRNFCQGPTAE
As to the kind of experiment: TLR9 inhibition reporter assay (HEK-Blue SEAP). Particulars: HEK-Blue cells overexpressing human TLR9, stimulated with ODN2006 5 nM, 22 hour incubation. A digest of the protocol: (§1)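 Stimulation followed a 30 min room-temperature compound exposure (final 0.05 nM-50 μM): TLR7 cells with 7.5 μM gardiquimod, TLR8 with 15.9 μM R848, TLR9 with 5 nM ODN2006. After 22 h at 37 °C, secreted alkaline phosphatase was detected colorimetrically and inhibition calculated against DMSO and known-inhibitor controls.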

A further experiment addresses T2, human TLR8 (Homo sapiens, UniProt Q9NR97).
T2 construct: host or cells: HEK-Blue cells
T2 sequence (Q9NR97 27-1041): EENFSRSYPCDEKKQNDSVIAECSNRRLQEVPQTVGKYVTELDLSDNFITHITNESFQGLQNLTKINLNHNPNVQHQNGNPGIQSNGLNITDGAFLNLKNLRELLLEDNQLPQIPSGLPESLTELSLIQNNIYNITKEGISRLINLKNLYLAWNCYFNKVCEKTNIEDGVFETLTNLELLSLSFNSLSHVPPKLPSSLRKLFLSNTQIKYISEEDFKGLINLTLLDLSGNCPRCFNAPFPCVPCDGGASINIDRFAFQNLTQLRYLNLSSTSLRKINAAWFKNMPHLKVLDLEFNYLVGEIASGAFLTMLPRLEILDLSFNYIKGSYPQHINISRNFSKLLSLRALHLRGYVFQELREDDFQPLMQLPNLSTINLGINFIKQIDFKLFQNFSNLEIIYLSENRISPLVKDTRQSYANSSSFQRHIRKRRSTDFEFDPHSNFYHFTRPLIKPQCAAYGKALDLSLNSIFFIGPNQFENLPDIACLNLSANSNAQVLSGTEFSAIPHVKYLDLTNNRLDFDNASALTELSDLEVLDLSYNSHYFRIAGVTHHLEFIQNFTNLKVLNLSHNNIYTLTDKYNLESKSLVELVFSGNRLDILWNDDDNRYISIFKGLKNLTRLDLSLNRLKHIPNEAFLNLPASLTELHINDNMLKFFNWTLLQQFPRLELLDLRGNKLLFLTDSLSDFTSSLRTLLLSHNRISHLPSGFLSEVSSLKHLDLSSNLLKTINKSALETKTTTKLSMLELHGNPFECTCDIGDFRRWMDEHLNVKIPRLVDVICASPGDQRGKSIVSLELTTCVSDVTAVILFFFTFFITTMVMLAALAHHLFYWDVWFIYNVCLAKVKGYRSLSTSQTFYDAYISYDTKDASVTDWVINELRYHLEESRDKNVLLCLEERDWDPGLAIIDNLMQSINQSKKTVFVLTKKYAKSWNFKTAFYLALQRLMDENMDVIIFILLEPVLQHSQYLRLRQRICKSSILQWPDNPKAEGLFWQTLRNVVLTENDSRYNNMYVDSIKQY
In words: TLR8 inhibition reporter assay (HEK-Blue SEAP). The note with it: HEK-Blue cells overexpressing human TLR8, stimulated with R848 15.9 μM, 22 hour incubation. A digest of the protocol:
as §1
(A reporter such as luciferase makes a cellular process visible.)

The next experiment deals with T3, human TLR7 (Homo sapiens, UniProt Q9NYK1).
T3 construct: host or cells: HEK-Blue cells
T3 sequence (Q9NYK1 27-1049): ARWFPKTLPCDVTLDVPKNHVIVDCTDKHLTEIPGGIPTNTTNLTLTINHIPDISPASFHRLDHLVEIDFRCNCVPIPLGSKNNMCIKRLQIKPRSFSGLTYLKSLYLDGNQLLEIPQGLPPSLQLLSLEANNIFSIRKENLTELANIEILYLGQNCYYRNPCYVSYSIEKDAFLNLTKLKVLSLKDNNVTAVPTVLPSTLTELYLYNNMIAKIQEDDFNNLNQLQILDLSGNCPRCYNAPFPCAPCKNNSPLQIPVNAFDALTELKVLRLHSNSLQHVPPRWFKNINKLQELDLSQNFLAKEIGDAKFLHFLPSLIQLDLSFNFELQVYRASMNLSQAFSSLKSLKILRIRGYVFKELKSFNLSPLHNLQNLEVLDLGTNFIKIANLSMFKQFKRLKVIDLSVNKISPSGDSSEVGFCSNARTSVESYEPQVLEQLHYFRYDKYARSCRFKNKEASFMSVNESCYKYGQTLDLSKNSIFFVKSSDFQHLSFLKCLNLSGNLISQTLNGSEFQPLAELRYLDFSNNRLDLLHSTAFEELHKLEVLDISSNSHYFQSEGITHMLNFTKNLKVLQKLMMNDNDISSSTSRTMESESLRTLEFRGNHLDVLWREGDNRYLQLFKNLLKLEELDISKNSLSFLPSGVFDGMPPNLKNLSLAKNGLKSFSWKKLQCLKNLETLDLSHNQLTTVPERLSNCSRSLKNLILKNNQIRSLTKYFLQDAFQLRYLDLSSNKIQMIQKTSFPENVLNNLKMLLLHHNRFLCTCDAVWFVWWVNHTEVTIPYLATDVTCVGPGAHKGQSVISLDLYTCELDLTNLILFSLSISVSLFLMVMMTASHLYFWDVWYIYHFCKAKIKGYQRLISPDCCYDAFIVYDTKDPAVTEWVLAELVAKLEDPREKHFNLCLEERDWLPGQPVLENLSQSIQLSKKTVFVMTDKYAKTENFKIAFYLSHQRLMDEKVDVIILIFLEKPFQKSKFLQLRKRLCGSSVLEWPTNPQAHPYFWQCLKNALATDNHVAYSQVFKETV
As to the kind of experiment: TLR7 inhibition reporter assay (HEK-Blue SEAP). Particulars: HEK-Blue cells overexpressing human TLR7, stimulated with gardiquimod 7.5 μM, 22 hour incubation. A digest of the protocol:
as §1

Results on 12 compounds are retold here after US12030878B2 (BRISTOL-MYERS SQUIBB COMPANY, priority 2017, dated 2024).

On to `Cc1cc(-c2[nH]c3ccc(OC4CCN(CC(=O)N(C)C)CC4)cc3c2C(C)C)cc(C)n1` [Example 79, 2-(4-((2-(2,6-dimethylpyridin-4-yl)-3-isopropyl-1H-indol-5-yl)oxy)piperidin-1-yl)-N,N-dimethylacetamide], for which the IC50 – broadly, the concentration at which inhibition is half-maximal – at human TLR9 came to 0.447 µM; against human TLR8, 0.0032 µM; against human TLR7 it was 0.008 µM.

Turning to `Cc1cc(-c2[nH]c3ccc(OCC4CCN(CC(=O)N(C)C)CC4)cc3c2C(C)C)cc(C)n1` [Example 80, 2-(4-(((2-(2,6-dimethylpyridin-4-yl)-3-isopropyl-1H-indol-5-yl)oxy)methyl)piperidin-1-yl)-N,N-dimethylacetamide], the IC50 came to 0.398 µM against human TLR9, 0.0085 µM against human TLR8 and 0.0077 µM on human TLR7.

Take `Cc1cc(-c2[nH]c3ccc(OCC4CCN(CC(=O)N(C)C)CC4)cc3c2C(C)C)cn(C)c1=O` [Example 81, 2-(4-(((2-(1,5-dimethyl-6-oxo-1,6-dihydropyridin-3-yl)-3-isopropyl-1H-indol-5-yl)oxy)methyl)piperidin-1-yl)-N,N-dimethylacetamide]: the IC50 is 24.9 µM against human TLR9, 0.0097 µM at human TLR8 and 0.0261 µM against human TLR7.

As to `Cc1cc(-c2[nH]c3ccc(O[C@H]4CCCN(CC(=O)N(C)C)C4)cc3c2C(C)C)cn(C)c1=O` [Example 82, (S)-2-(3-((2-(1,5-dimethyl-6-oxo-1,6-dihydropyridin-3-yl)-3-isopropyl-1H-indol-5-yl)oxy)piperidin-1-yl)-N,N-dimethylacetamide], the half-maximal inhibitory concentration (IC50) against human TLR9 turned out to be 40.6 µM; against human TLR8 it was 0.0276 µM; on human TLR7, 0.0173 µM.

As to `Cc1cc(-c2[nH]c3ccc(O[C@H]4CCCN(CC(=O)N(C)C)C4)cc3c2C(C)C)cn2ncnc12` [Example 83, (S)-2-(3-((3-isopropyl-2-(8-methyl-[1,2,4]triazolo[1,5-a]pyridin-6-yl)-1H-indol-5-yl)oxy)piperidin-1-yl)-N,N-dimethylacetamide], the concentration for half-maximal inhibition (IC50) against human TLR9 is 5.67 µM; at human TLR8, 0.0282 µM; on human TLR7, 0.0018 µM.

Turning to `Cc1cc(-c2[nH]c3ccc(OC4CCCN(CC(=O)N(C)C)C4)cc3c2C(C)C)cn(C)c1=O` (stereo not drawn) [Example 84, 2-(3-((2-(1,5-dimethyl-6-oxo-1,6-dihydropyridin-3-yl)-3-isopropyl-1H-indol-5-yl)oxy)piperidin-1-yl)-N,N-dimethylacetamide], the IC50 was 16.9 µM on human TLR9, 0.0029 µM on human TLR8 and 0.0065 µM on human TLR7.

For `Cc1cc(-c2[nH]c3ccc(OC4CCN(CC(=O)N(C)C)CC4)cc3c2C(C)C)cn2ncnc12` [Example 85, 2-(4-((3-isopropyl-2-(8-methyl-[1,2,4]triazolo[1,5-a]pyridin-6-yl)-1H-indol-5-yl)oxy)piperidin-1-yl)-N,N-dimethylacetamide], the IC50 at human TLR9 was 1.35 µM; on human TLR8, 0.0029 µM; on human TLR7, 0.0021 µM.

For the compound `Cc1cc(-c2[nH]c3ccc(OCC4CCN(CC(=O)N(C)C)CC4)cc3c2C(C)C)cn2ncnc12` [Example 86, 2-(4-(((3-isopropyl-2-(8-methyl-[1,2,4]triazolo[1,5-a]pyridin-6-yl)-1H-indol-5-yl)oxy)methyl)piperidin-1-yl)-N,N-dimethylacetamide], the IC50 is 4.38 µM on human TLR9, 0.0028 µM on human TLR8 and 0.0004 µM at human TLR7.

For the compound `Cc1c(-c2[nH]c3ccc(OC4CCN(CC(=O)N(C)C)CC4)cc3c2C(C)C)cn(C)c(=O)c1C` [Example 87, 2-(4-((3-isopropyl-2-(1,4,5-trimethyl-6-oxo-1,6-dihydropyridin-3-yl)-1H-indol-5-yl)oxy)piperidin-1-yl)-N,N-dimethylacetamide], the IC50 on human TLR9 was 19.6 µM; against human TLR8, 0.0058 µM; at human TLR7, 0.0332 µM.

For `Cc1c(-c2[nH]c3ccc(OCC4CCN(CC(=O)N(C)C)CC4)cc3c2C(C)C)cn(C)c(=O)c1C` [Example 88, 2-(4-(((3-isopropyl-2-(1,4,5-trimethyl-6-oxo-1,6-dihydropyridin-3-yl)-1H-indol-5-yl)oxy)methyl)piperidin-1-yl)-N,N-dimethylacetamide], the IC50 against human TLR9 worked out at 15.3 µM; at human TLR8 it was 0.0224 µM; against human TLR7, 0.0509 µM.

`Cc1c(-c2[nH]c3ccc(OCC4CCN(CC(=O)N(C)C)CC4)cc3c2C(C)C)cn2cnnc2c1C` [Example 89, 2-(4-(((2-(7,8-dimethyl-[1,2,4]triazolo[4,3-a]pyridin-6-yl)-3-isopropyl-1H-indol-5-yl)oxy)methyl)piperidin-1-yl)-N,N-dimethylacetamide]: the IC50 at human TLR9 came out at 6.87 µM; against human TLR8, 0.0165 µM; on human TLR7, 0.0076 µM.

On to `Cc1c(-c2[nH]c3ccc(OC4CCN(CC(=O)N(C)C)CC4)cc3c2C(C)C)cn2cnnc2c1C` [Example 90, 2-(4-((2-(7,8-dimethyl-[1,2,4]triazolo[4,3-a]pyridin-6-yl)-3-isopropyl-1H-indol-5-yl)oxy)piperidin-1-yl)-N,N-dimethylacetamide], for which the figures for the IC50 at human TLR9, against human TLR8 and against human TLR7 were 12.9 µM, 0.0133 µM and 0.0083 µM, respectively.
